ChEMBL document CHEMBL3045630, “Predictive QSAR modeling on tetrahydropyrimidine-2-one derivatives as HIV-1 protease enzyme inhibitors” (Med Chem Res, 2013)

These compounds were tested against Protease (Human immunodeficiency virus 1, UniProt Q9YQ12) (assay: Inhibition of Human immunodeficiency virus 1 protease).
Chain of Protease (Q9YQ12 whole entry): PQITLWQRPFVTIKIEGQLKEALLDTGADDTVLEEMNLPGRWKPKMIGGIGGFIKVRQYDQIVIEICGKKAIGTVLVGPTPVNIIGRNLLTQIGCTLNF

| Ki | Structure (SMILES) |
| --- | --- |
| 186 nM | O=C1N(Cc2ccccc2)C(Cc2ccccc2)C(O)C(C(Br)Cc2ccccc2)N1Cc1ccccc1 (centres undefined) |
| 66.1 nM | O=C1NC(CCc2ccccc2)C(O)C(Cc2ccccc2)N1Cc1ccccc1 (centres undefined) |
| 15.1 nM | N#Cc1cccc(CN2C(=O)NC(CCc3ccccc3)C(O)C2Cc2ccccc2)c1 (centres undefined) |
| 158 nM | Nc1cccc(CN2C(=O)NC(CCc3ccccc3)C(O)C2Cc2ccccc2)c1 (centres undefined) |
| 6.17 nM | Nc1cccc(CN2C(=O)NC(Cc3ccccc3)C(O)C2CCc2ccccc2)c1 (centres undefined) |
| 11 nM | N#Cc1cccc(CN2C(=O)N(Cc3cccc(C#N)c3)C(Cc3ccccc3)C(O)C2CCc2ccccc2)c1 (centres undefined) |
| 0.912 nM | CC(=O)c1cccc(CN2C(=O)N(Cc3cccc(C(C)=O)c3)C(Cc3ccccc3)C(O)C2CCc2ccccc2)c1 (centres undefined) |
| 0.0891 nM | NC(=O)c1cccc(CN2C(=O)N(Cc3cccc(C(N)=O)c3)C(Cc3ccccc3)C(O)C2CCc2ccccc2)c1 (centres undefined) |
| 0.309 nM | NC(=O)c1cccc(CN2C(=O)N(Cc3cccc(C(N)=O)c3)C(Cc3ccc(F)cc3)C(O)C2CCc2ccc(F)cc2)c1 (centres undefined) |
| 0.151 nM | NC(=O)c1cccc(CN2C(=O)N(Cc3cccc(C(N)=O)c3)C(Cc3ccc(F)c(F)c3)C(O)C2CCc2ccc(F)c(F)c2)c1 (centres undefined) |
| 0.02 nM | N/C(=N/O)c1cccc(CN2C(=O)N(Cc3cccc(/C(N)=N\O)c3)C(Cc3ccc(F)cc3)C(O)C2CCc2ccc(F)cc2)c1 (centres undefined) |
| 0.01 nM | N/C(=N/O)c1cccc(CN2C(=O)N(Cc3cccc(/C(N)=N\O)c3)C(Cc3ccc(F)c(F)c3)C(O)C2CCc2ccc(F)c(F)c2)c1 (centres undefined) |
| 0.0603 nM | N/C(=N/O)c1cc(CN2C(=O)N(Cc3ccc(F)c(/C(N)=N\O)c3)C(Cc3ccc(F)c(F)c3)C(O)C2CCc2ccccc2)ccc1F (centres undefined) |
| 1.7 nM | Nc1cccc(CN2C(=O)N(Cc3cccc(N)c3)C(Cc3ccccc3)C(O)C2CCc2ccccc2)c1 (centres undefined) |
| 7.94 nM | Nc1ccc(CN2C(=O)N(Cc3ccc(N)c(F)c3)C(Cc3ccccc3)C(O)C2CCc2ccccc2)cc1F (centres undefined) |
| 22.9 nM | CNc1cccc(CN2C(=O)N(Cc3cccc(NC)c3)C(Cc3ccccc3)C(O)C2CCc2ccccc2)c1 (centres undefined) |
| 0.1 nM | O=C1N(Cc2cccc(-n3cccn3)c2)C(CCc2ccccc2)C(O)C(Cc2ccccc2)N1Cc1cccc(-n2cccn2)c1 (centres undefined) |
| 0.0603 nM | O=C1N(Cc2ccc3[nH]ncc3c2)C(CCc2ccccc2)C(O)C(Cc2ccccc2)N1Cc1ccc2[nH]ncc2c1 (centres undefined) |
| 0.1 nM | Cc1n[nH]c2ccc(CN3C(=O)N(Cc4ccc5[nH]nc(C)c5c4)C(Cc4ccccc4)C(O)C3CCc3ccccc3)cc12 (centres undefined) |
| 0.0302 nM | Nc1n[nH]c2ccc(CN3C(=O)N(Cc4ccc5[nH]nc(N)c5c4)C(Cc4ccccc4)C(O)C3CCc3ccccc3)cc12 (centres undefined) |
| 12 nM | O=C1N(Cc2cccc(O)c2)C(Cc2ccccc2)C(O)C(C(F)Cc2ccccc2)N1Cc1cccc(O)c1 (centres undefined) |
| 11 nM | O=C1N(Cc2cccc(CO)c2)C(Cc2ccccc2)C(O)C(C(Br)Cc2ccccc2)N1Cc1cccc(CO)c1 (centres undefined) |

| Ki | Structure (SMILES) |
| --- | --- |
| 110 nM | N#Cc1cc(CN2C(=O)NC(CCc3ccccc3)C(O)C2Cc2ccccc2)ccc1F (centres undefined) |
| 5.62 nM | NC(=O)c1cccc(CN2C(=O)NC(CCc3ccccc3)C(O)C2Cc2ccccc2)c1 (centres undefined) |
| 14.1 nM | NC(=O)c1cc(CN2C(=O)NC(CCc3ccccc3)C(O)C2Cc2ccccc2)ccc1F (centres undefined) |
| 0.24 nM | N/C(=N/O)c1cccc(CN2C(=O)NC(CCc3ccccc3)C(O)C2Cc2ccccc2)c1 (centres undefined) |
| 1.41 nM | N/C(=N/O)c1cc(CN2C(=O)NC(CCc3ccccc3)C(O)C2Cc2ccccc2)ccc1F (centres undefined) |
| 0.38 nM | Cc1n[nH]c2ccc(CN3C(=O)NC(CCc4ccccc4)C(O)C3Cc3ccccc3)cc12 (centres undefined) |
| 1.2 nM | O=C1NC(CCc2ccccc2)C(O)C(Cc2ccccc2)N1Cc1ccc2[nH]ncc2c1 (centres undefined) |
| 33.1 nM | N#Cc1cc(CN2C(=O)N(Cc3ccccc3)C(Cc3ccccc3)C(O)C2CCc2ccccc2)ccc1F (centres undefined) |
| 39.8 nM | N#Cc1cc(CN2C(=O)N(Cc3ccccc3)C(CCc3ccccc3)C(O)C2Cc2ccccc2)ccc1F (centres undefined) |
| 0.646 nM | Nc1n[nH]c2cc(CN3C(=O)N(Cc4ccccc4)C(Cc4ccccc4)C(O)C3CCc3ccccc3)ccc12 (centres undefined) |
| 0.282 nM | Nc1n[nH]c2ccc(CN3C(=O)N(Cc4ccccc4)C(CCc4ccccc4)C(O)C3Cc3ccccc3)cc12 (centres undefined) |
| 0.129 nM | Cc1n[nH]c2cc(CN3C(=O)N(Cc4cccc(N)c4)C(Cc4ccccc4)C(O)C3CCc3ccccc3)ccc12 (centres undefined) |
| 1.58 nM | N#Cc1cccc(CN2C(=O)N(Cc3cccc(N)c3)C(Cc3ccccc3)C(O)C2CCc2ccccc2)c1 (centres undefined) |
| 0.1 nM | Nc1cccc(CN2C(=O)N(Cc3ccc4c(N)n[nH]c4c3)C(CCc3ccccc3)C(O)C2Cc2ccccc2)c1 (centres undefined) |
| 14.1 nM | N#Cc1cccc(CN2C(=O)N(Cc3cccc(C#N)c3)C(Cc3cccc(F)c3)C(O)C2CCc2ccc(F)cc2)c1 (centres undefined) |
| 0.251 nM | Nc1cc(CN2C(=O)N(Cc3ccc(F)c(N)c3)C(Cc3ccccc3)C(O)C2CCc2ccccc2)ccc1F (centres undefined) |
| 0.0794 nM | Cc1ccc(C(=O)Nc2cccc(CN3C(=O)N(Cc4cccc(NC(=O)c5ccc(C)cn5)c4)C(Cc4ccccc4)C(O)C3CCc3ccccc3)c2)nc1 (centres undefined) |
| 0.0302 nM | CN1C=CSC1C(=O)Nc1cccc(CN2C(=O)N(Cc3cccc(NC(=O)C4SC=CN4C)c3)C(Cc3ccccc3)C(O)C2CCc2ccccc2)c1 (centres undefined) |
| 43.7 nM | O=C1NC(Cc2ccccc2)C(O)C(CCc2ccccc2)N1Cc1ccc2cn[nH]c2c1 (centres undefined) |
| 0.0794 nM | Nc1cccc(CN2C(=O)N(Cc3ccc4cn[nH]c4c3)C(Cc3ccccc3)C(O)C2CCc2ccccc2)c1 (centres undefined) |
| 0.0603 nM | NC(=O)c1cccc(CN2C(=O)N(Cc3cccc(N)c3)C(Cc3ccccc3)C(O)C2CCc2ccccc2)c1 (centres undefined) |
| 15.1 nM | O=C1N(Cc2ccccc2)C(CCc2ccccc2)C(O)C(Cc2ccccc2)N1Cc1ccccc1 (centres undefined) |
